In ChEMBL document CHEMBL1201862, “PubChem BioAssay data set” (2004):
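1) Cells in 96-well plates. 2) Compound, 48 h, 5 concentrations. 3) Linear interpolation between surrounding doses. 4) Unreached endpoint = highest concentration. At the GI50, growth is halved.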 The source made the active and inactive calls. No stated cut-off is given here; in the data, active = GI50 up to about 1.1 µM and inactive = higher.

Experiments:
Test in all cases: NCI-60 cell line screen, 48 h
786-0 = tested on: 786-0
CAKI-1 = tested on: CAKI-1
CCRF-CEM = tested on: CCRF-CEM
HOP-62 = tested on: HOP-62
MOLT-4 = tested on: MOLT-4
Malme-3M = tested on: Malme-3M
NCI-H226 = tested on: NCI-H226
NCI-H460 = tested on: NCI-H460
OVCAR-3 = tested on: OVCAR-3
OVCAR-5 = tested on: OVCAR-5
SF-268 = tested on: SF-268
SNB-75 = tested on: SNB-75
TK-10 = tested on: TK-10
UACC-257 = tested on: UACC-257
DU-145 = tested on: DU-145
MDA-MB-231 = tested on: MDA-MB-231
MDA-N = tested on: MDA-N
T47D = tested on: T47D

Measured: GI50

O=C(O)[C@@H]1CCCC[C@@H]1C(=O)N(C1CCCCC1)C1CCCCC1
inactive: 786-0 > 100 µM | CAKI-1 > 100 µM | CCRF-CEM > 100 µM | HOP-62 > 100 µM | MOLT-4 > 100 µM | Malme-3M > 100 µM | NCI-H226 > 100 µM | NCI-H460 > 100 µM | OVCAR-3 > 100 µM | OVCAR-5 > 100 µM | SF-268 > 100 µM | SNB-75 > 100 µM | TK-10 > 100 µM | UACC-257 > 100 µM

COc1cc(C(=O)CC2(O)C(=O)Nc3c(Cl)cc(Cl)cc32)ccc1O (centres undefined)
inactive: 786-0 > 100 µM | CAKI-1 56.2 µM | CCRF-CEM 36.6 µM | HOP-62 37.5 µM | MOLT-4 26.3 µM | Malme-3M > 100 µM | NCI-H226 40 µM | NCI-H460 75.7 µM | OVCAR-3 46.3 µM | OVCAR-5 > 100 µM | SF-268 43.8 µM | SNB-75 24.2 µM | TK-10 > 100 µM | UACC-257 43.6 µM

CC(=O)CCn1[nH]c(=O)c(Cl)c(Cl)c1=O
inactive: 786-0 > 100 µM | CAKI-1 14.3 µM | CCRF-CEM > 100 µM | HOP-62 > 100 µM | MOLT-4 > 100 µM | Malme-3M > 100 µM | NCI-H226 > 100 µM | NCI-H460 > 100 µM | OVCAR-3 > 100 µM | OVCAR-5 > 100 µM | SF-268 > 100 µM | SNB-75 > 100 µM | TK-10 > 100 µM | UACC-257 > 100 µM

COCCOC(=O)C1=C(O)c2ccccc2S(=O)(=O)N1C
inactive: 786-0 > 100 µM | CAKI-1 > 100 µM | CCRF-CEM > 100 µM | DU-145 > 100 µM | HOP-62 > 100 µM | MDA-MB-231 > 100 µM | MDA-N > 100 µM | MOLT-4 > 100 µM | Malme-3M > 100 µM | NCI-H226 > 100 µM | NCI-H460 > 100 µM | OVCAR-3 > 100 µM | OVCAR-5 > 100 µM | SF-268 > 100 µM | SNB-75 12.5 µM | T47D > 100 µM | TK-10 > 100 µM | UACC-257 > 100 µM

O=C1N2Cc3c4ccc5c3CN3C(=O)N6Cc7c(ccc(c7CN1C6(c1ccccc1)C23c1ccccc1)OCCOCCNCCOCCO4)OCCOCCNCCOCCO5 (centres undefined)
inactive: 786-0 31.5 µM | CAKI-1 51.6 µM | CCRF-CEM 23.2 µM | HOP-62 > 100 µM | MOLT-4 19.7 µM | Malme-3M 23.5 µM | NCI-H226 > 100 µM | NCI-H460 30.5 µM | OVCAR-3 15 µM | OVCAR-5 > 100 µM | SF-268 > 100 µM | SNB-75 > 100 µM | TK-10 26.9 µM | UACC-257 16.9 µM

CCN(C(=N)C#N)c1ccccc1
inactive: 786-0 > 41.9 µM | CAKI-1 > 100 µM | CCRF-CEM > 54.5 µM | HOP-62 > 100 µM | MOLT-4 > 100 µM | Malme-3M > 100 µM | NCI-H226 > 100 µM | NCI-H460 > 63.8 µM | OVCAR-3 > 100 µM | OVCAR-5 > 100 µM | SF-268 > 100 µM | SNB-75 > 100 µM | TK-10 > 100 µM | UACC-257 > 59.2 µM

COc1cc(C)c2c(c1C)OC(=O)c1c(C)c(Cl)c(O)c(C=O)c1O2
inactive: 786-0 10.4 µM | CAKI-1 52.2 µM | CCRF-CEM 9.18 µM | HOP-62 20.3 µM | MOLT-4 9.79 µM | Malme-3M 15.5 µM | NCI-H226 23.2 µM | NCI-H460 17.4 µM | OVCAR-3 1.63 µM | OVCAR-5 27.7 µM | SF-268 9.66 µM | SNB-75 14.3 µM | TK-10 29 µM | UACC-257 20 µM

Cc1cc(N(CCC#N)CCC#N)ccc1/N=N/c1ccc([N+](=O)[O-])cc1
inactive: 786-0 43 µM | CAKI-1 > 100 µM | CCRF-CEM > 100 µM | HOP-62 > 100 µM | MOLT-4 > 100 µM | Malme-3M > 100 µM | NCI-H226 > 100 µM | NCI-H460 39.4 µM | OVCAR-3 47.2 µM | OVCAR-5 > 100 µM | SF-268 > 100 µM | SNB-75 > 10 µM | TK-10 39.8 µM | UACC-257 > 100 µM

CC(=O)NC(CCCN(Cc1ccccc1)C(=O)N(CCCl)N=O)C(=O)NCc1ccccc1 (centres undefined)
inactive: 786-0 2.24 µM | CAKI-1 7.5 µM | CCRF-CEM 23 µM | HOP-62 7.24 µM | MOLT-4 9.4 µM | Malme-3M > 53.1 µM | NCI-H226 44.9 µM | NCI-H460 3.32 µM | OVCAR-3 98.6 µM | OVCAR-5 35.2 µM | SF-268 3.89 µM | SNB-75 9.02 µM | TK-10 > 85.5 µM | UACC-257 50 µM

C=CC[C@@H]1C(=O)[C@@]2(O[Si](C(C)C)(C(C)C)C(C)C)CC[C@@H]1C[C@H]2NC(=O)OCC(Cl)(Cl)Cl
inactive: 786-0 77.1 µM | CAKI-1 59.2 µM | CCRF-CEM 60 µM | DU-145 > 100 µM | HOP-62 > 100 µM | MDA-MB-231 > 10 µM | MDA-N 77.1 µM | MOLT-4 > 100 µM | NCI-H226 > 100 µM | NCI-H460 35.5 µM | OVCAR-3 90.8 µM | OVCAR-5 > 100 µM | SF-268 > 100 µM | SNB-75 > 100 µM | T47D > 100 µM | TK-10 > 100 µM | UACC-257 43.8 µM

NC(CCc1nc(-c2ccc(Cl)cc2)cs1)C(=O)O (centres undefined)
inactive: 786-0 > 100 µM | CAKI-1 > 100 µM | CCRF-CEM > 100 µM | HOP-62 > 100 µM | MOLT-4 > 100 µM | Malme-3M > 100 µM | NCI-H226 > 100 µM | NCI-H460 > 100 µM | OVCAR-3 > 100 µM | OVCAR-5 > 100 µM | SF-268 > 100 µM | SNB-75 > 100 µM | TK-10 > 100 µM | UACC-257 > 100 µM

CN(C)CCn1cnc2sc3ccccc3c21
inactive: 786-0 > 100 µM | CAKI-1 95.3 µM | CCRF-CEM > 100 µM | HOP-62 > 100 µM | MOLT-4 > 100 µM | Malme-3M > 100 µM | NCI-H226 40.4 µM | NCI-H460 > 100 µM | OVCAR-3 > 100 µM | OVCAR-5 > 100 µM | SF-268 > 100 µM | SNB-75 22.2 µM | TK-10 > 100 µM | UACC-257 > 100 µM

O=C1/C(=C/c2cccc([N+](=O)[O-])c2)COc2ccccc21
inactive: 786-0 1.63 µM | CAKI-1 5.33 µM | CCRF-CEM 1.53 µM | HOP-62 11 µM | MOLT-4 2.31 µM | Malme-3M 16.1 µM | NCI-H226 3.86 µM | NCI-H460 15.6 µM | OVCAR-3 2.79 µM | OVCAR-5 > 35 µM | SF-268 8.99 µM | SNB-75 13.1 µM | TK-10 23 µM | UACC-257 7.69 µM
